According to patent publication US20090176759A1, “LEUKEMIC STEM CELL ABLATION” (ChemGenex Pharmaceuticals, Inc., priority 2007, published 2009):

Tests used:
[1] = tested on: B-cells containing BCR-ABL-T315I; assay: Proliferation, number of viable cells determined by trypan blue; format: cell-based
Description: (§1) In FIG. 1A the number of viable cells at the indicated drug concentrations was determined by trypan blue. In FIG. 1B the expression of ABL and MCL-1 in K562 (myeloid) cells is inhibited by HHT. In FIG. 1C the expression of ABL in lymphoid cells with BCR-ABL or the BCR-ABL T315I mutation is inhibited by HHT.
(§2) Antibodies for Western Blot analysis against c-ABL, Mcl-1 and β-actin were purchased from Santa Cruz Biothechology (Santa Cruz, Calif.). Protein lysates were prepared by lysing cells in RIPA buffer and immunoprecipitation. The retroviral vector MSCV-IRES-eGFP carrying the BCR-ABL cDNA was used to make virus stock for bone marrow transduction/transplantation. Four- to 10-week-old wild-type BABL/c or C57BL/6 (The Jackson Laboratory) and homozygous SRC triple gene knockout (Lyn−/−Hck−/−Fgr−/−) mice were used for leukemogenesis experiments. HHT (ChemGenex Pharmaceuticals, Inc, CA) was dissolved in accompanying diluent to a stock concentration of 1 mg/ml. Further dilutions were made to working concentrations using media or water.

[2] = tested on: B-cells containing BCR-ABL-WT; assay: as above; format: cell-based
Description: as §1, §2

[3] = tested on: K562 myeloid cells; assay: as above; format: cell-based
Description: as §1, §2

[4] = tested on: ABL; assay: Western Blot analysis of ABL expression; format: cell-based
Description: as §1, §2

[5] = tested on: MCL-1; assay: Western Blot analysis of MCL-1 expression in K562 cells; format: cell-based; conditions: K562 (myeloid) cells
Description: as §1, §2

[6] = tested on: BCR-ABL-WT-induced CML; assay: Mice with BCR-ABL-WT-induced CML treated with HHT; format: in vivo
Description: (§3) FIG. 2A is a FACS analysis of circulating GFP+ cells in mice with BCR-ABL-WT-induced CML. […] The number of circulating leukemic cells (calculated as percentage of Gr-1+GFP+ cells×white blood cell count) in mice with BCR-ABL-WT-induced CML treated with placebo or HHT for 4 days was determined on day 12 after transplantation. FIG. 2B depicts a bar graph for the leukemic cells as well as a bar graph for spleen weight of the mice treated with placebo or HHT.
as §2
as §3, with “of circulating leukemic GFP+ cells” for “of circulating GFP+ cells”

[7] = tested on: BCR-ABL-induced B-ALL; assay: Mice with BCR-ABL-induced B-ALL treated with HHT; format: in vivo
Description: FIG. 4A is a FACS analysis evaluation of the leukemic process in HHT or placebo treated B-ALL mice after 4 days or 10 days.
as §2

[8] = tested on: leukemia stem cells (GFP+Lin− c-Kit+Sca-1+); assay: Bone marrow cells from CML mice cultured in vitro with HHT, FACS analysis of leukemia stem cells; format: cell-based
Description: (§4) FIG. 5A is a FACS analysis of bone marrow cells isolated from mice with BCR-ABL-WT-induced CML were cultured in vitro (5×10^6 cells/6 cm tissue culture plate) in the presence of different doses of HHT for 6 days (changing the stem cell medium containing placebo or HHT at day 3) followed by FACS analysis of leukemia stem cells (GFP+Lin− c-Kit+Sca-1+). FIG. 5B depicts bar graphs for the leukemic cells and leukemic stem cells. […] Bone marrow cells were isolated from the treated CML mice, and leukemia stem cells were analyzed by FACS. The numbers of cells represent total leukemia stem cells in average from femur and tibia of each treated CML mouse.
FIG. 5A is a FACS analysis of bone marrow cells isolated from mice with BCR-ABL-WT-induced CML that were cultured in vitro (5×10^6 cells/6 cm tissue culture plate) in the presence of different doses of HHT for 6 days (changing the stem cell medium containing placebo or HHT at day 3) followed by FACS analysis of leukemia stem cells (GFP+ Lin− c-Kit+Sca-1+). FIG. 5B depicts bar graphs for the leukemic cells and leukemic stem cells.

[9] = tested on: leukemia stem cells of mice with BCR-ABL-WT-induced CML; assay: Leukemic cells and leukemia stem cells in bone marrow of treated CML mice, FACS; format: in vivo; conditions: HHT 0.5 mg/kg once every day, imatinib 100 mg/kg twice a day, by gavage, 4 days beginning at day 8 after transplantation
Description: as §4
Bone marrow cells were isolated from the treated CML mice, and leukemia stem cells were analyzed by FACS. The numbers of cells represent total leukemia stem cells in average from femur and tibia of each treated CML mouse.

[10] = tested on: T315I mutated BCR-ABL transcripts; assay: Peripheral blood BCR-ABL transcript levels by qRT-PCR and KD mutation analyses during omacetaxine therapy; format: in vivo, human
Description: Presence of T315I is confirmed at study entry at one of two reference labs (University of Texas MD Anderson Cancer Center or University of Heidelberg, Medizinische Fakultat Mannheim).
Peripheral blood BCR-ABL transcript levels are determined during omacetaxine therapy by quantitative real-time polymerase chain reaction (qRT-PCR) and BCR-ABL KD mutation analyses.

[11] = in vitro, different doses of HHT for 6 days

COC(=O)C[C@](O)(CCCC(C)(C)O)C(=O)O[C@@H]1C(OC)=C[C@]23CCCN2CCc2cc4c(cc2[C@H]13)OCO4 [HHT, Homoharringtonine]
proliferation [1]: inhibits the proliferation | proliferation [2]: inhibits the proliferation | proliferation [3]: inhibits the proliferation | expression of ABL ([4]; K562 (myeloid) cells): inhibited | expression of ABL ([4]; lymphoid cells with BCR-ABL): inhibited | expression of ABL ([4]; lymphoid cells with the BCR-ABL T315I mutation): inhibited | expression of MCL-1 [5]: inhibited | survival ([6]; BCR-ABL-WT CML mice, HHT vs placebo): significantly increased | number of circulating leukemic cells (percentage of Gr-1+GFP+ cells×white blood cell count) ([6]; HHT 0.5 mg/kg for 4 days, day 12 after transplantation, vs placebo): significantly reduces | size of the spleen (spleen weight) ([6]; HHT 0.5 mg/kg vs placebo): significantly reduces | leukemic cells (FACS) ([7]; B-ALL mice after 4 days or 10 days, HHT vs placebo): significant reduction in leukemic cells as a function of treatment time and HHT dosage | survival ([7]; B-ALL mice, HHT 1 mg/kg): prolonged survival | proliferation of BCR-ABL-expressing leukemic stem cells [8]: inhibits the proliferation | number of leukemic cells [8, 11]: reduces | number of leukemic stem cells [8, 11]: reduces | number of leukemic cells in bone marrow [9]: reduces | number of leukemic stem cells in bone marrow (femur and tibia) [9]: reduces | evaluable patients with T315I mutated BCR-ABL transcripts reduced below the detection level ([10]; 5/13 evaluable patients): 38% | T315I mutated clone ([10]; CP patients (FIG. 8)): rapidly and substantially reduced | patients in whom the T315I clone is reduced to below the limits of detection ([10]; chronic phase patients (FIG. 8)): 64% | T315I clone ([10]; heavily-pretreated patients with IM-resistant T315I+CML): complete elimination of the T315I clone in a number of heavily-pretreated patients
